Experiments:
[1] = system: magnesium deficiency-induced dermatosis in rat; test: model of magnesium deficiency-induced dermatosis in rat; type: in vivo; conditions: male hairless rats on low-magnesium diet, oral treatment at 6 mg/kg/day, 5 consecutive days
Source text: Activity of mGluR5 antagonists as antipruritics according to the invention is evidenced for example in a model of magnesium deficiency-induced dermatosis in rat. This dermatosis is characterised by a transient erythematous maculopapular rash associated with a severe generalised pruritus. The animals scratch and bite themselves causing excoriations and wounds on the head and trunk (Neckermann G., Bavandi A., Meingassner J. G., Br. J. Dermatol; 2000; 142: 669-679). According to this model, male hairless rats (Ico:OFA hr/hr) obtained from Iffa Credo (Lyon, France) at an age of 3 weeks are maintained with a diet low in magnesium (C10350, Altromin, Lage, Germany) and demineralised water. After onset of symptoms, the test compound is applied orally to 5 rats per group on 5 consecutive days. Control animals are treated similarly with the vehicle alone. Efficacy is assessed by clinical examination and semiquantitative assessment of skin lesions. The intensity and extend of the erythematous maculopapular rash is scored with 0 (not present) to 4 (most severe changes, involvement of the whole trunk). The intensity of pruritus is evaluated by the scoring of excoriations at the head, shoulders, lateral abdomen/flanks and caudal dorsal trunk with 0 (not present), 1 (few lesions) or […] (numerous lesions) resulting in a combined maximal score of 12 per animal. […]

[2] = system: itch induced in mice by Compound 48/80; test: model of itch induced in mice by injection of the pruritic agent Compound 48/80; type: in vivo; conditions: C57BL/6 mice, 30 μg/10 μl s.c. Compound 48/80, oral administration of 3-30 mg/kg and 10-100 mg/kg, 30 min prior, observed 30 minutes
Method: Experiments are carried out on adult female and male C57BL/6 mice (25-30 g). Individual mice receive the test compound p.o. (a vehicle alone for control animals) 30 min. prior to subcutaneous injections of the above mentioned pruritic agent into the dorsal neck region and are then placed into a clear Perspex box. A maximum of 3 mice are closely and continuously observed by an experimenter for 30 minutes following injection. ‘Scratching episodes’ are defined as scratching focused at the site of injection using the hind paws, and differentiated from grooming behaviour that also involves licking and is systematically directed over all body regions. The duration of the itch behaviour is recorded by using a keyboard linked to three stop-clocks.

| SMILES | inflammatory skin reddening and infiltration [1] | signs of pruritus (scoring of excoriations) [1] | duration of scratching episodes induced by the pruritic agent [2] |
| --- | --- | --- | --- |
| Cc1cccc(C#Cc2cccnc2)n1 [2-[2-(pyridin-3-yl)ethynyl]-6-methyl-pyridine] | is not inhibited | inhibits signs of pruritus |  |
| Cc1cccc(C#Cc2ccccc2)n1 [2-methyl-6-phenylethynyl-pyridine] |  |  | significantly decreases |
